According to US20100130439A1, “GENOMIC MUTATION INHIBITORS THAT INHIBIT Y FAMILY DNA POLYMERASES” (priority 2007, published 2010):

Columns and labels:
[1] = tested on: wild-type and the isolated mutant cells; experiment: MIC of AZT against wild-type and isolated mutant cells; assay type: cell-based, E. coli
Method: (§1) Characterization of mutants. The MICs were determined of over one hundred isolated antibiotic-resistant colonies. All of the ciprofloxacin-resistant mutants had MICs of 480 ng/mL (FIG. 2B). The ciprofloxacin resistance mutants contained a CG to TA transition translating into a Ser 83→Leu mutation in DNA gyrase. This mutation is known to provide the greatest ciprofloxacin resistance obtainable in a single step (Drlica K, Zhao X (1997) Microbiol Mol Biol Rev 61: 377-392).

[2] = tested on: CC 102; experiment: MIC of AZT against CC102; assay type: cell-based, E. coli; conditions: Escherichia coli, read-out: AZT MIC
From the text: One strain, CC102, required a GC to AT transition.

[3] = tested on: most gram-negative bacteria; conditions: Elwell et al. 1987; cited from earlier work
[4] = tested on: ciprofloxacin-resistant mutants; experiment: MIC of isolated ciprofloxacin-resistant colonies; assay type: cell-based, E. coli; conditions: Escherichia coli
Method: as §1

[5] = tested on: wild-type MG1655 K12 E. coli; assay type: cell-based; conditions: d4T 6 μg/mL
[6] = tested on: triclosan-resistant mutants; experiment: MIC of isolated triclosan-resistant colonies; assay type: cell-based, E. coli; conditions: Escherichia coli
Method: as §1
The vast majority of isolated triclosan-resistant mutants (˜85%) had MICs of 16 μg/mL. These colonies had acquired a GC to TA transversion resulting in a Gly 93→Val mutation in FabI, the known protein target of triclosan (FIG. 2B). This mutation is known to produce the greatest triclosan resistance possible via a single step (McMurry L, Oethinger M, Levy S (1998) Nature 394: 531-532). […] It is, therefore, reasonable that the frequency of UV-induced triclosan-resistant mutants is considerably lower (˜8-fold) than the frequency of UV-induced ciprofloxacin-resistant mutants. The remaining triclosan-resistant mutants (˜15%) had MICs between 2-4 μg/mL. These included three different mutations of Phe 203 in FabI: a TA to CG transition giving serine, a TA to GC transversion giving valine, and a TA to GC transversion giving cystine (FIG. 2B). […]

In the case of Cc1cn([C@H]2C[C@H](N=[N+]=[N-])[C@@H](CO)O2)c(=O)[nH]c1=O [AZT, 3′-azido-2′-deoxythymidine], the MIC ([1]; both the wild-type and the isolated ciprofloxacin-/triclosan-resistant mutant cells) is reported as 0.01 µg/mL, the “sensitivity to AZT” value ([1]; several rifampicin-resistant mutants) is reported as “varying sensitivities” and the MIC [2] is reported as 0.02 µg/mL. For the same compound, the antibacterial activity [3] was “antibacterial activity”.
For O=C(O)c1cn(C2CC2)c2cc(N3CCNCC3)c(F)cc2c1=O [ciprofloxacin], the MIC [4] was 0.48 µg/mL.
In the case of Cc1cn([C@H]2C=C[C@@H](CO)O2)c(=O)[nH]c1=O [d4T, 2′,3′-didehydro-3′-deoxythymidine], the “UV-induced generation of mutations that confer resistance to ciprofloxacin” value [5] is given as “inhibits” and the antibacterial activity [3] is given as “antibacterial activity”.
Oc1cc(Cl)ccc1Oc1ccc(Cl)cc1Cl [triclosan] showed an MIC ([6]; remaining (~15%) triclosan-resistant mutants (FabI Phe 203 mutations)) of 2 to 4 µg/mL and an MIC ([6]; vast majority (~85%) of triclosan-resistant mutants (FabI Gly 93→Val)) of 16 µg/mL.
